According to patent US5688799A, “9-Hydroxy-pyrido[1,2-a]pyrimidin-4-one ether derivatives” (Janssen Pharmaceutica N.V., priority 1993, dated 1997):
Where two headings read alike, the source gives them in different places.

Tests used:
[1] = system: serotonin (peripheral symptoms, hyperaemia, elicited with serotonin or tryptamine); assay: combined APO, TRY, NOR test in rats: tryptamine (TRY) hyperaemia; type: in vivo; settings: Rattus norvegicus
[2] = system: serotonin (central symptoms, convulsions, elicited with serotonin or tryptamine); assay: combined APO, TRY, NOR test in rats: tryptamine (TRY) convulsions; type: in vivo; settings: Rattus norvegicus, read-out: TRY convulsions ED50
[3] = system: dopamine (symptoms elicited with the dopamine agonist apomorphine); assay: combined apomorphine (APO), tryptamine (TRY) and norepinephrine (NOR) test in rats: apomorphine (APO); type: in vivo; settings: Rattus norvegicus, read-out: APO ED50
[4] = system: norepinephrine (death upon administration of the α2 -agonist norepinephrine); assay: animal or person; type: in vivo, rats; settings: Rattus norvegicus, read-out: NOR ED50
[5] = combined test in rats, tryptamine, central (convulsions)
[6] = combined test in rats, apomorphine

Structure (SMILES) | ED50 [1] [µg/kg] | ED50 [2] [mg/kg] | ED50 [3] [mg/kg] | ED50 [4] [mg/kg] | ED50 [2, 5] [mg/kg] | ED50 [3, 6] [mg/kg]
Cc1nc2c(OCCCC#N)cccn2c(=O)c1CCN1CCC(c2noc3cc(F)ccc23)CC1 [Compound 5] | 5 | 1.25 | 1.25 | 1.25 |  | 
CCOCOc1cccn2c(=O)c(CCN3CCC(c4noc5cc(F)ccc45)CC3)c(C)nc12 [Compound 2, 9-(ethoxymethoxy)-3-[2-[4-(6-fluoro-1,2-benzisoxazol-3-yl)-1-piperidinyl]ethyl]-2-methyl-4H-pyrido[1,2-a]pyrimidin-4-one] | 10 | 1.25 | 1.25 | 1.25 |  | 
COC1CCCn2c1nc(C)c(CCN1CCC(c3noc4cc(F)ccc34)CC1)c2=O (racemic) [Compound 7, (±)-3-[2-[4-(6-fluoro-1,2-benzisoxazol-3-yl)-1-piperidinyl]ethyl]-6,7,8,9-tetrahydro-9-methoxy-2-methyl-4H-pyrido[1,2-a]pyrimidin-4-one] | 1.25 |  |  |  | 0.02 | 0.02
CCCCCCCCCCCCOC1CCCn2c1nc(C)c(CCN1CCC(c3noc4cc(F)ccc34)CC1)c2=O (stereo not drawn) [Compound 9] | 10 |  |  | 2.5 | 1.25 | 10
CCCOC1CCCn2c1nc(C)c(CCN1CCC(c3noc4cc(F)ccc34)CC1)c2=O (stereo not drawn) [Compound 10, 3-[2-[4-(6-fluoro-1,2-benzisoxazol-3-yl)-1-piperidinyl]ethyl]-6,7,8,9-tetrahydro-2-methyl-9-propoxy-4H-pyrido[1,2-a]pyrimidin-4-one] | 2 |  |  | 0.16 | 0.08 | 0.08
COCCOC1CCCn2c1nc(C)c(CCN1CCC(c3noc4cc(F)ccc34)CC1)c2=O (stereo not drawn) [Compound 11] | 1.25 |  |  | 1.25 | 0.63 | 0.31
CCOCOC1CCCn2c1nc(C)c(CCN1CCC(c3noc4cc(F)ccc34)CC1)c2=O (stereo not drawn) [Compound 8] | 1.25 |  |  |  | 0.16 | 0.31
COc1cccn2c(=O)c(CCN3CCC(c4noc5cc(F)ccc45)CC3)c(C)nc12 [Compound 1, 3-[2-[4-(6-fluoro-1,2-benzisoxazol-3-yl)-1-piperidinyl]ethyl]-9-methoxy-2-methyl-4H-pyrido[1,2-a]pyrimidin-4-one] | 2.5 |  |  |  | 0.16 | 0.31
C#CCOc1cccn2c(=O)c(CCN3CCC(c4noc5cc(F)ccc45)CC3)c(C)nc12 [Compound 6, 3-[2-[4-(6-fluoro-1,2-benzisoxazol-3-yl)-1-piperidinyl]ethyl]-2-methyl-9-(2-propynyloxy)-4H-pyrido[1,2-a]pyrimidin-4-one] |  |  |  | < 0.63 | < 0.63 | < 0.63
CCCCCCCCCCCCOc1cccn2c(=O)c(CCN3CCC(c4noc5cc(F)ccc45)CC3)c(C)nc12 [Compound 3] | 1250 |  |  |  | > 10 | > 10
C=CCOc1cccn2c(=O)c(CCN3CCC(c4noc5cc(F)ccc45)CC3)c(C)nc12 [Compound 4, 3-[2-[4-(6-fluoro-1,2-benzisoxazol-3yl)-1-piperidinyl]ethyl]-2-methyl-9-(2-propenyloxy)-4H-pyrido[1,2-a]pyrimidin-4-one] | 5 |  |  | 0.16 | 0.31 | 0.31
